Results reported in article PMC10589313 (Nature Communications, 2023).
Values joined by “and” are separate entries in the source; they are usually repeats but may differ in a detail not shown here. Equal entries are not always repeated.

Assays:
human H4R Q347G mutant = target: T1, human H4R Q347G mutant (Homo sapiens, UniProt Q9H3N8, Q347G); assay: TGFα shedding assay, H4R Q347G mutant; format: cell-based
T1 construct: a mutant H4R (human, full-length, and untagged); expressed in transfected cells; host or cells: HEK293A
T1 sequence (Q9H3N8 whole entry Q347G): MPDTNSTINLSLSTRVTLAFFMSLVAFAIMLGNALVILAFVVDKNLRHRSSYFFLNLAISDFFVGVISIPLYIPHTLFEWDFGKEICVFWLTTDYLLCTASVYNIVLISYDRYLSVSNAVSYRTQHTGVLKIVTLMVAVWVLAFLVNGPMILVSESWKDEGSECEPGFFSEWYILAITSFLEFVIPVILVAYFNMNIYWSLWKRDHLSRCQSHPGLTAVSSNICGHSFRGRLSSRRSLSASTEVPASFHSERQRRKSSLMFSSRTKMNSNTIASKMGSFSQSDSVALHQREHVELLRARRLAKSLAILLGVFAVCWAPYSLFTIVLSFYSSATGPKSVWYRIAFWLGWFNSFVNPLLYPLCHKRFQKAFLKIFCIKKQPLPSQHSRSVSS
Procedure: (§1) The mutants were prepared using the primers listed in Supplementary Table 2. […] The chimeric Gαq/i1 subunit comprises the Gαq backbone and Gαi1-derived six-amino acid C-terminus and couples with Gi-coupled H4R but induces a Gq-dependent TGFα shedding response. After culturing for 1 day and incubating at 37 °C in a 5% CO2 incubator, the transfected cells were harvested by trypsinization, neutralized with Dulbecco’s modified Eagle’s medium containing 10% fetal calf serum (FCS) and penicillin–streptomycin, washed once with Hank’s balanced salt solution (HBSS) containing 5 mM of HEPES (pH 7.4), and resuspended in 6 mL of the HEPES-containing HBSS. The cell suspension was seeded into a 96-well plate at a volume of […] per well (typically, 48 wells per transfected cells) and incubated for 30 min in the CO2 incubator. Test compounds (10×, diluted in 0.01% BSA and 5 mM of HEPES-containing HBSS, […] volume) were added to duplicate wells and incubated for 1 h. After centrifugation, the conditioned medium ([…]) was transferred to an empty 96-well plate. AP reaction solution [10 mM of p-nitrophenylphosphate (p-NPP), 120 mM of Tris–HCl (pH 9.5), 40 mM of NaCl, and 10 mM of MgCl2] was dispensed into the cell culture plates and plates containing conditioned media ([…]). Absorbance was measured at 405 nm before and after a 1-h incubation period at 25 °C using a microplate reader (iMark™ Microplate Absorbance Reader; BioRad). Ligand-induced AP-TGFα release was calculated as previously described. The vehicle-treated AP-TGFα release signal was set as a baseline unless otherwise specified. AP-TGFα release signals were fitted with a four-parameter sigmoidal concentration-response curve, from which EC50 and Emax values were obtained, using GraphPad Prism 9 software (GraphPad Prism). Negative values of logarithmically transformed EC50 values (pEC50) were used to calculate the mean and standard error of independent experiments.
(§2) All functional study data were analyzed using Prism 9 (GraphPad) and are presented as mean ± standard error of the mean (SEM) of three independent experiments. Statistical analyses were performed using Prism 9 (GraphPad) with one-way analysis of variance followed by Dunnett’s post-hoc test. Values with p < 0.05 are considered statistically significant.

human H4R W348Y mutant = target: T2, human H4R W348Y mutant (Homo sapiens, UniProt Q9H3N8, W348Y); assay: TGFα shedding assay, H4R W348Y mutant; format: cell-based
T2 construct: a mutant H4R (human, full-length, and untagged); expressed in transfected cells; host or cells: HEK293A
T2 sequence (Q9H3N8 whole entry W348Y): as the sequence (Q9H3N8 whole entry Q347G) above, with G347Q, W348Y counted along it
Procedure: as §1
(§3) All functional study data were analyzed using Prism 9 (GraphPad) and are presented as mean ± standard error of the mean (SEM) of three independent experiments. […]

human H4R F344A mutant = target: T3, human H4R F344A mutant (Homo sapiens, UniProt Q9H3N8, F344A); assay: TGFα shedding assay, H4R F344A mutant; format: cell-based
T3 construct: a mutant H4R (human, full-length, and untagged); expressed in transfected cells; host or cells: HEK293A
T3 sequence (Q9H3N8 whole entry F344A): as the sequence (Q9H3N8 whole entry Q347G) above, with F344A, G347Q counted along it
Procedure: (§4) The mutants were prepared using the primers listed in Supplementary Table 2. […] The chimeric Gαq/i1 subunit comprises the Gαq backbone and Gαi1-derived six-amino acid C-terminus and couples with Gi-coupled H4R but induces a Gq-dependent TGFα shedding response. After culturing for 1 day and incubating at 37 °C in a 5% CO2 incubator, the transfected cells were harvested by trypsinization, neutralized with Dulbecco’s modified Eagle’s medium containing 10% fetal calf serum (FCS) and penicillin–streptomycin, washed once with Hank’s balanced salt solution (HBSS) containing 5 mM of HEPES (pH 7.4), and resuspended in 6 mL of the HEPES-containing HBSS. The cell suspension was seeded into a 96-well plate at a volume of […] per well (typically, 48 wells per transfected cells) and incubated for 30 min in the CO2 incubator. Test compounds (10×, diluted in 0.01% BSA and 5 mM of HEPES-containing HBSS, […] volume) were added to duplicate wells and incubated for 1 h. […] Absorbance was measured at 405 nm before and after a 1-h incubation period at 25 °C using a microplate reader (iMark™ Microplate Absorbance Reader; BioRad). Ligand-induced AP-TGFα release was calculated as previously described. […]
as §3

human H4R E182A mutant = target: T4, human H4R E182A mutant (Homo sapiens, UniProt Q9H3N8, E182A); assay: TGFα shedding assay, H4R E182A mutant; format: cell-based
T4 construct: a mutant H4R (human, full-length, and untagged); expressed in transfected cells; host or cells: HEK293A
T4 sequence (Q9H3N8 whole entry E182A): as the sequence (Q9H3N8 whole entry Q347G) above, with E182A, G347Q counted along it
Procedure: as §4, §3

human H4R N147A mutant = target: T5, human H4R N147A mutant (Homo sapiens, UniProt Q9H3N8, N147A); assay: TGFα shedding assay, H4R N147A mutant; format: cell-based; details: for EC50: EC50 (nM)
T5 construct: a mutant H4R (human, full-length, and untagged); expressed in transfected cells; host or cells: HEK293A
T5 sequence (Q9H3N8 whole entry N147A): as the sequence (Q9H3N8 whole entry Q347G) above, with N147A, G347Q counted along it
Procedure: as §1, §2

H3R = details: read-out: binding affinity for H3R; cited from earlier work
human H4R E182N mutant = target: T6, human H4R E182N mutant (Homo sapiens, UniProt Q9H3N8, E182N); assay: TGFα shedding assay, H4R E182N mutant; format: cell-based
T6 construct: a mutant H4R (human, full-length, and untagged); expressed in transfected cells; host or cells: HEK293A
T6 sequence (Q9H3N8 whole entry E182N): as the sequence (Q9H3N8 whole entry Q347G) above, with E182N, G347Q counted along it
Procedure: as §1, §3

human H4R N147W mutant = target: T7, human H4R N147W mutant (Homo sapiens, UniProt Q9H3N8, N147W); assay: TGFα shedding assay, H4R N147W mutant; format: cell-based; details: for EC50: EC50 (nM)
T7 construct: a mutant H4R (human, full-length, and untagged); expressed in transfected cells; host or cells: HEK293A
T7 sequence (Q9H3N8 whole entry N147W): as the sequence (Q9H3N8 whole entry Q347G) above, with N147W, G347Q counted along it
Procedure: as §1, §2

human wild-type H4R = target: T8, human wild-type H4R (Homo sapiens, UniProt Q9H3N8); assay: TGFα shedding assay, wild-type H4R; format: cell-based
T8 construct: a mutant H4R (human, full-length, and untagged); expressed in transfected cells; host or cells: HEK293A
T8 sequence (Q9H3N8 whole entry): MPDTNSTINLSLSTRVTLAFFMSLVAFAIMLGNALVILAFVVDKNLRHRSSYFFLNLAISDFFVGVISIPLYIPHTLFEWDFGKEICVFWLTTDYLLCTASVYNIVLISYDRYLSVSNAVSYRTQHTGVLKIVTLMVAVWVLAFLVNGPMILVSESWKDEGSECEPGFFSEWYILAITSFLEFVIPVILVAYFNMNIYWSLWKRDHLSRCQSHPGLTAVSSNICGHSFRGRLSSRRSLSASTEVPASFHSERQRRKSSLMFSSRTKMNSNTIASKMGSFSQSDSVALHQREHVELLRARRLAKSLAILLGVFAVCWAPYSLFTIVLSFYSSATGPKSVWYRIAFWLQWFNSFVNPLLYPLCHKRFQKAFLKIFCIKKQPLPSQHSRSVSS
Procedure: as §1, §2

[1] = Imetit (M) -5 (log concentration), raw replicate values

For `N=C(N)SCCc1cnc[nH]1` [Imetit, imetit], the EC50 (human H4R Q347G mutant; pEC50 mean ± SEM, Q347G mutant) was 4.68 nM, the Emax (human H4R Q347G mutant; read-out: Emax (%) mean ± SEM) was 12.9 ± 1.22% and the EC50 (human H4R W348Y mutant) was over 10000 nM. The “Shedding assay response, W348Y” value (human H4R W348Y mutant; [1]) was 5.993 and 7.639 and 4.713 and 7.402 and 9.589 and 3.141 and 9.854 and 11.9801 and 8.402, the “signaling activity at mutant, in words” value (human H4R W348Y mutant; W348Y (H1R mimic) mutant vs wild type) was “loss of imetit activity” and the EC50 (human H4R F344A mutant) was over 10000 nM. For the same molecule, the “Shedding assay response, F344A” value (human H4R F344A mutant; [1]) was 3.594 and 4.917 and 1.113 and -1.672 and 3.266 and -0.2412 and 0.127 and -2.198 and -1.529, the EC50 (human H4R E182A mutant) was over 10000 nM and the “Shedding assay response, E182A” value (human H4R E182A mutant; [1]) was 0.5777 and -0.6527 and 0.544 and 1.716 and -0.08867 and -2.204 and 4.0352 and 2.359 and 1.291. The EC50 (human H4R N147A mutant; N147A mutant) was 116 nM, the EC50 (human H4R N147A mutant; N147A, single experiments, source data Figure 4e-f) was 137 nM and 107 nM and 104 nM and the “Shedding assay response, N147A” value (human H4R N147A mutant; [1]) was 17.6838 and 20.1153 and 13.587 and 17.1019 and 17.2369 and 16.9193 and 20.3122 and 17.3343 and 19.4779. For the same molecule, the fold of change (human H4R N147A mutant; N147A mutant, EC50 relative to WT) was 3.9 fold, the Emax (human H4R N147A mutant; read-out: Emax (%) mean ± SEM) was 17.2 ± 0.52% and the Ki (H3R) was 0.3 nM. For the same molecule, the EC50 (human H4R E182N mutant) was over 10000 nM, the “Shedding assay response, E182N” value (human H4R E182N mutant; [1]) was -0.3367 and 1.68 and -1.08 and 4.253 and 4.399 and 3.645 and 9.053 and 3.546 and 4.747 and the EC50 (human H4R N147W mutant; N147W mutant) was 603 nM. For the same molecule, the EC50 (human H4R N147W mutant; N147W, single experiments, source data Figure 4e-f) was 569 nM and 612 nM and 627 nM, the “Shedding assay response, N147W” value (human H4R N147W mutant; [1]) was 17.8239 and 17.9174 and 17.7465 and 15.1009 and 14.2938 and 15.4251 and 18.7186 and 19.6688 and 18.9313 and the fold of change (human H4R N147W mutant; N147W mutant, EC50 relative to WT) was 20.2 fold. For the same molecule, the Emax (human H4R N147W mutant; read-out: Emax (%) mean ± SEM) was 18.4 ± 1.29%, the EC50 (human wild-type H4R; EC50 (nM), WT H4R) was 29.9 nM and the EC50 (human wild-type H4R; EC50 (nM), hH4R, single experiments (3 columns), source data Figure 4e-f) was 30.7 nM and 23 nM. The “Shedding assay response, WT” value (human wild-type H4R; [1]) was 14.3865 and 12.6364 and 12.8296 and 15.366 and 17.4678 and 18.6444 and 14.3694 and 15.3398 and 17.1099, the fold of change (human wild-type H4R; WT H4R, EC50 relative to WT) was 1 fold and the EC50 (human wild-type H4R; pEC50, hH4R, single experiments (3 columns), source data Figure 4e-f) was 35.8 nM and 30.7 nM. The EC50 (human wild-type H4R; pEC50 mean ± SEM, WT H4R, three independent experiments) was 29.5 nM and the Emax (human wild-type H4R; read-out: Emax (%) mean ± SEM) was 14.9 ± 1.19%.
